One data set deals with T1, HBV polymerase (Hepatitis B virus genotype A2 subtype adw2, UniProt P03159).
T1 construct: made in house; host or cells: E. coli
The data set can be described thus: In vitro reverse transcription activity of HBV polymerase (ELISA-type, DIG/biotin nucleotides). Format: biochemical. The settings on record: for inhibition at 0.01 µg/mL / inhibition at 0.1 µg/mL / inhibition at 1 µg/mL: read-out: Inhibition activity on HBV-RT (%). As for the experimental part:
The following in vitro experiment was performed to determine the effect of the compounds of formula 1 on the activity of HBV polymerase during reverse transcription.
The present inventors submitted application for a patent concerning HBV polymerase genetically expressed in and separated from E. coli, the process of its preparation, and the method to measure the enzyme activities (KR 94-3918, KR 96-33998). In the present experiments HBV polymerase was used which had been expressed in E. coli as stated above.
The method used in the present invention to measure in vitro reverse transcribing activities of HBV polymerase is as follows. Basic principles are the same as for ELISA. Nucleotides with biotin or digoxigenin group attached are included as substrates and anti-DIG antibodies attached to peroxidase enzyme recognize the polymerized substrates.
To the wells coated with streptavidin, 20 μl of HBV polymerase, 20 μl of reaction mixture (10 μM each of DIG-UTP and Biotin-UTP, 46 mM Tris-HCl, 266 mM KCl, 27.5 mM MgCl2, 9.2 mM DTT substrate/primer hybrid), and 20 μl of test compound (added to 1, 0.1, and 0.01 μg/ml) were added and allowed to react a 22° C. for 15 hrs. During this reaction, HBV polymerase catalyzes DNA synthesis and digoxigenin and biotin attached to nucleotides form bonds with streptavidin coated on the bottom of wells. When the reaction was done, each well was washed with 250μl of cleaning buffer (pH 7.0) for 30 seconds, which was repeated five times to remove remaining impurities. 200 μl of anti-DIG-POD antibody was added to each well and allowed to react for 1 hr at 37° C., and the wells were washed with cleaning buffer to remove impurities. 200μl each of ABTS™, a substrate of peroxidase, was then added and allowed to react at room temperature for 30 min. Absorbance was measured at 405 nm using ELISA reader.
The percentage of reduction in HBV polymerase activities for reverse transcription was calculated using the group without test compound as a control and the results are shown in Table 3.

Another data set has as its system HBV. The data set can be described thus: Inhibition of HBV proliferation in HBV producing cell line HepG 2.2.15 (competitive PCR of culture supernatant). Format: cell-based, Hepatitis B virus. The conditions noted are these: HepG 2.2.15, one week. The procedure: The following experiment was performed to determine inhibitory effects of compounds of formula on the proliferation of HBV producing cell line.
To test for antiviral effect, replication and proliferation of HBV were measured in HepG 2.2.15, a human liver cancer cell line.
The cell concentration was adjusted to 1×10^5 cells/ml and 1 ml was added to each well of a 24-well cell culture plate, which was then kept in a culture box for 3-4 days at 37° C. under 5% CO2 until cells grew sufficiently, changing culture medium everyday. When the cells matured sufficiently, the test compounds were added to the final concentrations of 0.01, 0.1, and 1 μg/ml. One week after the addition of test compounds, he culture solution was centrifuged at 5,000 rpm for 10 min. 25 μl of supernatant was transferred to a new tube and 5 μl of lysis solution [0.54N NaOH, 0.06% NP40] was added to each tube. After keeping the tube at 37° C. for 1 hr, 30 μl . of neutralizing solution [0.09NHCl, 0.1MTris-HCl, pH7.4] was added as a reaction solution for competitive polymerase chain reaction (PCR).
PCR was performed using genetic sequence of HBV core protein as a matrix. PCR reaction was carried out by adding 1 unit of Taq polymerase enzyme to 25 pmol of each primer, 250 μM dNTP, 5 μl of PCR reaction solution [0.54N NaOH, 0.06% NP40, 0.09N HCl, 0.1M Tris-HCl, pH 7.4].
DNA polymerized by PCR was electrophoresed on Agarose gel and quantitatively analyzed using an image analyzer (Gel Dcc 1000, Bio-Rad) in order to evaluate the effect of compounds of the present invention on the reduction of HBV proliferation.
3TC (lamivudine) was used as a positive control at the same concentrations as those of the test compounds. The percentage of reduction in HBV proliferation was calculated using the group without test compound as a control and the results are represented in Table 4.

In data set [1] the target is T2, HIV reverse transcriptase (Human immunodeficiency virus type 1 group M subtype B, UniProt P04585).
T2 construct: activities of HIV reverse transcriptase; purchased Boehringer Mannheim
The data set can be described thus: In vitro HIV reverse transcriptase activity (non-radioactive reverse transcriptase assay kit). Format: biochemical. The procedure: The following in vitro experiments were done to determine the effect of compounds of formula 1 on the reduction of HIV enzyme activities in reverse transcription.
Non-radioactive reverse transcriptase assay kit (Boehringer Mannheim) was used in the measurement of in vitro transcriptase activities. 20 μl (40 ng) of HIV transcriptase and 20 μl of reaction mixture containing matrix-primer hybrid poly (A) oligo (dT) 15, DIG(digoxigenin)-dUTP, biotin-dUTP, and TTP were added to wells coated with streptavidin. Test compounds were also added at the final concentrations of 0.1 and 1 μg/ml and allowed to react at 37° C. for 1 hr. At this time, DNA is formed from RNA by the action of HIV transcriptase, forming bonds with streptavidin coated on the bottom of wells because of digoxigenin and biotin moieties attached to nucleotides.
When the reaction was completed, each well was washed with 250 μl. of cleaning buffer (pH 7.0) for 30 sec. five times to remove remaining impurities. 200 μl of anti-DIG-POD […] was added to each well, allowed to react at 37° C. for 1 hr and washed as above to remove impurities. 200 μl of ABTS™, a substrate for peroxidase, was added to each well and allowed to react at room temperature for 30min. Absorbance at 405 nm was then read for each solution using ELISA reader and used for quantitative determination of inhibitory effect on the HIV transcriptase activities. The percentage of reduction in the activities of HIV reverse transcriptase was calculated using the group without test compound as control and the results are represented in Table 5.

T1 sequence (P03159 whole entry): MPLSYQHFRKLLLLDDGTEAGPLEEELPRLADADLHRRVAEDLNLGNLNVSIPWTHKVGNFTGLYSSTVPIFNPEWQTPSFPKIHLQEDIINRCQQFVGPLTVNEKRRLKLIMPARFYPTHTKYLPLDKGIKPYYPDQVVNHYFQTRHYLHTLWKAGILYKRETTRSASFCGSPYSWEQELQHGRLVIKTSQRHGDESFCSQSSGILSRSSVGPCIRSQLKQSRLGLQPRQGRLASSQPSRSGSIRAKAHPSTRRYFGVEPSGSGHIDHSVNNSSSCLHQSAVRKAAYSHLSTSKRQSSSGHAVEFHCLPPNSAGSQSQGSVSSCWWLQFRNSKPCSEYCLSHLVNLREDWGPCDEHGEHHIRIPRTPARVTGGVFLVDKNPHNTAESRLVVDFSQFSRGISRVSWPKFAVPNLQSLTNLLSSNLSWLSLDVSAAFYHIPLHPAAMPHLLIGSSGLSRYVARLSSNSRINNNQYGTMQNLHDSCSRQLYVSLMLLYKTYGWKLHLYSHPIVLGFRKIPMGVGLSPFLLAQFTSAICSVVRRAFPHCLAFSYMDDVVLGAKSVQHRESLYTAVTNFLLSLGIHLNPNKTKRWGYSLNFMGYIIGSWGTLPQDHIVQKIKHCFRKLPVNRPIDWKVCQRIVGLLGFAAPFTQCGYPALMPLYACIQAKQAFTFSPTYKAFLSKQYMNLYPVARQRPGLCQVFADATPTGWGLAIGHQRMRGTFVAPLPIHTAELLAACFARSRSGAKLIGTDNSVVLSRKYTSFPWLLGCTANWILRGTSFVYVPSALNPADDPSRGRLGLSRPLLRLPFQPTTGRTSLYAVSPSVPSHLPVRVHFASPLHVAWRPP

As to `CSc1ncc(C(=O)NN2CCN(C)CC2)c(Nc2ccc3[nH]ncc3c2)n1` [Example 21, 4-(1H-5-indazolylamino)-N-(4-methyl-1-piperazinyl)-2-methylthio-5-pyrimidinecarboxamide], the melting point was in the range of 251 to 253 °C. Moreover, the inhibition at 0.01 µg/mL on HBV polymerase (0.01 μg/ml test compound) is 40%. The inhibition at 0.1 µg/mL on HBV polymerase (0.1 μg/ml test compound) was 54%. Further, the inhibition at 1 µg/mL at HBV polymerase (1 μg/ml test compound) is 78%.

`CSc1ncc(C(=O)NN2CCN(C)CC2)c(Nc2ccc3cn[nH]c3c2)n1` [Example 22, 4-(1H-6-indazolylamino)-N-(4-methyl-1-piperazinyl)2-methylthio-5-pyrimidinecarboxamide] returned a melting point of 244 to 247 °C. The inhibition at 0.01 µg/mL at HBV polymerase (0.01 μg/ml test compound) worked out at 28%. The inhibition at 0.1 µg/mL on HBV polymerase (0.1 μg/ml test compound) turned out to be 46%. Besides, the inhibition at 1 µg/mL on HBV polymerase (1 μg/ml test compound) was found to be 72%.

In the case of `COC(=O)[C@@H](NC(=O)c1cnc(SC)nc1Nc1ccc2cn[nH]c2c1)[C@@H](C)O` [Example 24, 4-(1H-6-indazolylamino)-N-[(1S)-1-(methoxycarbonyl)-(2R)-2-hydroxypropyl]-2-methylthio-5-pyrimidinecarboxamide], the melting point lay in the range of 226 to 228 °C. Moreover, the inhibition at 0.01 µg/mL at HBV polymerase (0.01 μg/ml test compound) was 50%. At HBV polymerase (0.1 μg/ml test compound), the inhibition at 0.1 µg/mL stood at 63%. Further, the inhibition at 1 µg/mL on HBV polymerase (1 μg/ml test compound) was 82%.

With `COC(=O)[C@@H](NC(=O)c1cnc(SC)nc1Nc1ccc2[nH]ncc2c1)[C@@H](C)O` [Example 23, 4-(1H-5-indazolylamino)-N-[(1S)-1-(methoxycarbonyl)-(2R)-2-hydroxypropyl]-2-methylthio-5-pyrimidinecarboxamide], the melting point lay in the range of 227 to 232 °C. The inhibition at 0.01 µg/mL at HBV polymerase (0.01 μg/ml test compound) worked out at 18%. Besides, the inhibition at 0.1 µg/mL on HBV polymerase (0.1 μg/ml test compound) is 40%. Moreover, at HBV polymerase (1 μg/ml test compound), the inhibition at 1 µg/mL was found to be 51%.

Take `CSc1ncc(C(=O)NCCCn2ccnc2)c(Nc2ccc3cn[nH]c3c2)n1` [Example 30, N-[3-(1H-1-imidazolyl)propyl]-4-(1H-6-indazolylamino)-2-methylthio-5-pyrimidinecarboxamide]: the melting point was in the range of 230 to 232 °C. Besides, the inhibition at 0.01 µg/mL on HBV polymerase (0.01 μg/ml test compound) is 32%. In addition, at HBV polymerase (0.1 μg/ml test compound), the inhibition at 0.1 µg/mL amounted to 58%. The inhibition at 1 µg/mL on HBV polymerase (1 μg/ml test compound) turned out to be 91%.

In turn, `CSc1ncc(C(=O)N2CCN(CCO)CC2)c(Nc2ccc3cn[nH]c3c2)n1` [Example 34, 5-[[4-(2-hydroxyethyl)-1-piperazinyl]carbonyl]-4-(1H-6-indazolylamino)-2-methylthiopyrimidine] yielded a melting point of 114 to 117 °C. Moreover, the inhibition at 0.01 µg/mL at HBV polymerase (0.01 μg/ml test compound) came to 15%. The inhibition at 0.1 µg/mL at HBV polymerase (0.1 μg/ml test compound) turned out to be 43%. Also, the inhibition at 1 µg/mL at HBV polymerase (1 μg/ml test compound) was found to be 59%.

In the case of `CSc1ncc(C(=O)N2CCN(C)CC2)c(Nc2ccc3cn[nH]c3c2)n1` [Example 32, 4-(1H-6-indazolylamino)-5-[(4-methyl-1-piperazinyl)-carbonyl]-2-methylthiopyrimidine], the melting point lay within 102 to 106 °C. Further, the inhibition at 0.01 µg/mL at HBV polymerase (0.01 μg/ml test compound) turned out to be 26%. Besides, the inhibition at 0.1 µg/mL on HBV polymerase (0.1 μg/ml test compound) turned out to be 40%. For the same compound, the inhibition at 1 µg/mL at HBV polymerase (1 μg/ml test compound) is 62%.

Compound `CSc1ncc(C(=O)NN2CCOCC2)c(Nc2ccc3[nH]ncc3c2)n1` (hydrate or solvate) [Example 35, 4-(1H-5-indazolylamino)-2-methylthio-N-(4-morpholinyl)-5-pyrimidinecarboxamide] registered a melting point of 239 to 242 °C.

Turning to `CSc1ncc(C(=O)NCCN(C)C)c(Nc2ccc3[nH]ncc3c2)n1` [Example 17, N-[2-(dimethylamino)ethyl]-4-(1H-5-indazolylamino)-2-methylthio-5-pyrimidinecarboxamide], the melting point fell in the range of 111 to 114 °C. Besides, the inhibition at 0.01 µg/mL on HBV polymerase (0.01 μg/ml test compound) worked out at 15%. The inhibition at 0.1 µg/mL at HBV polymerase (0.1 μg/ml test compound) amounted to 51%. In addition, the inhibition at 1 µg/mL at HBV polymerase (1 μg/ml test compound) was found to be 80%.

In turn, `CSc1ncc(C(=O)N2CCN(C)CC2)c(Nc2ccc3[nH]ncc3c2)n1` [Example 31, 4-(1H-5-indazolylamino)-5-[(4-methyl-1-piperazinyl)-carbonyl]-2-methylthiopyrimidine] displayed a melting point of 153 to 155 °C. In addition, the inhibition at 0.01 µg/mL at HBV polymerase (0.01 μg/ml test compound) worked out at 43%. The inhibition at 0.1 µg/mL on HBV polymerase (0.1 μg/ml test compound) came to 58%. Moreover, on HBV polymerase (1 μg/ml test compound), the inhibition at 1 µg/mL was 82%.

For the compound `CSc1ncc(C(=O)N2CCN(CCO)CC2)c(Nc2ccc3[nH]ncc3c2)n1` [Example 33, 5-[[4-(2-hydroxyethyl)-1-piperazinyl]carbonyl]-4-(1H-5-indazolylamino)-2-methylthiopyrimidine], the melting point lay within 166 to 170 °C. Besides, the inhibition at 0.01 µg/mL on HBV polymerase (0.01 μg/ml test compound) was 11%. In addition, the inhibition at 0.1 µg/mL on HBV polymerase (0.1 μg/ml test compound) worked out at 32%. Also, the inhibition at 1 µg/mL on HBV polymerase (1 μg/ml test compound) amounted to 53%.

Regarding `CSc1ncc(C(N)=O)c(Nc2ccc3[nH]ncc3c2)n1` [Example 1, 4-(1H-5-Indazolylamino)-2-methyl thio-5-pyrimidinecarboxamide], the “Inhibitory effect on the HBV proliferation, Inhibition activity on HBV-RT (%)” value in the data set with HBV (0.01 μg/ml) is 25%; with HBV (0.1 μg/ml), 53%; in the data set on HBV (1 μg/ml), 82%. Further, the “Inhibition activity on HBV-RT (%)” value on HBV polymerase (0.01 μg/ml test compound) came out at 40%; at HBV polymerase (0.1 μg/ml test compound), 63%; at HBV polymerase (1 μg/ml test compound), 90%. Besides, the “Inhibitory effect on the activities of HIV reverse transcriptase, Inhibition activity on HBV-RT (%)” value in data set [1] (0.1 μg/ml test compound) amounted to 44%; in data set [1] (1 μg/ml test compound), 65%.

`COCCNC(=O)c1cnc(SC)nc1Nc1ccc2cn[nH]c2c1` [Example 14, 4-(1H-6-indazolylamino)-N-(2-methoxyethyl)-2-methylthio-5-pyrimidinecarboxamide] displayed a melting point of 225 to 228 °C. Further, the inhibition at 0.01 µg/mL on HBV polymerase (0.01 μg/ml test compound) is 25%. In addition, the inhibition at 0.1 µg/mL at HBV polymerase (0.1 μg/ml test compound) is 42%. For the same compound, on HBV polymerase (1 μg/ml test compound), the inhibition at 1 µg/mL came to 60%.

(Values after patent US6762189B1, “5-pyrimidinecarboxamide derivatives and the pharmaceutical compositions containing said derivatives” (Dong Wha Pharm. Ind. Co., Ltd., priority 1999, dated 2004).)
